# Measured values reported in US8742082B2, “Compositions and methods for influencing satiety, lipid metabolism, and fat utilization” (Nestec S.A., priority 2008, dated 2014).
# Key:
# [1] = Chronic oral OEA in high fat diet: food intake; assay type: in vivo; conditions: C3H mice, 4 weeks
# Description: (§1) The physiological and biochemical effects of chronic oral OEA administration were investigated. Mice were chronically fed with OEA, provided as a supplement during 4 weeks, to study the effect on body weight gain and cumulative food intake, among other parameters.
# (§2) Animals, diet and experimental design. Adult male C3H mice purchased at 8 weeks of age were individually housed and maintained ad libitum on different diets and water for 2 weeks. Seven mice were allocated in 3 groups by randomization by weight, and fed with a high fat diet (lipids represented 50% of daily energy) during 2 weeks. The composition of the high fat diet per kg was: 284.5 g of corn starch, 89.5 g of saccharose, 250 g of casein, 50 g of cellulose, 10 g of a mix of vitamins (V1001), 35 g of a mix of minerals (S10026) and 281 g of canola oil (UPAE, Jouy en Josas, France). Then, OEA was added to the diets at different levels to provide 0, 10, or 100 mg OEA/kg body weight. The mice were kept on each respective diet for 4 weeks. During the nutritional intervention, daily food intake was monitored and the mice were weighed 3 times a week.
# (§3) Statistical analysis. Results were determined as mean±standard error of the mean (SEM). Statistical analysis of physiological parameters was performed by one-way ANOVA on Statview software (SAS institute, Cary, USA). Statistical significance was set up at the P<0.05 level.
# [2] = Chronic oral OEA in high fat diet: plasma triglycerides and cholesterol; assay type: in vivo; conditions: C3H mice, 4 weeks; for Plasma triglycerides, change: P<0.05
# Description: as §1, §2
# Sampling. At the end of the experimental period, mice were sacrificed by blood drawing after anesthesia with isoflurane. Plasma was obtained by centrifugation (1,000 g for 10 min at 4° C.). Mesenteric, epididymal, inguinal and peritoneal adipose depots, as well as liver, stomach, small intestine mucosa and gastrocnemian muscle were excised and frozen into liquid nitrogen. Plasma and organ samples were kept at −80° C. until analysis. Triglycerides, glucose, total cholesterol and HDL cholesterol were directly measured on plasma samples collected during the sacrifice by enzymatic procedures, using a Beckman Coulter Systems SYNCHRON LX 20 (Beckman Coulter, Fullerton, USA) (oxidase method, Beckman Coulter for glucose, GPO method, Beckman Coulter for TG, oxidase and esterase method, Beckman Coulter for cholesterol). HDL were isolated by specific solubilization, using a precipitation isolation kit (Beckman Coulter, Fullerton, USA).
# as §3
# [3] = tested on: Sterol regulatory element binding protein-C 2 (SREBP2 1); assay: Real-time PCR gene expression in peripheral tissues: SREBP2; assay type: in vivo; conditions: liver; C57bl6j mice, high fat diet, 100 mg/kg/body weight in diet, 5 weeks
# Experimental: (§4) The expression of 45 genes was measured by real-time PCR in peripheral tissues to identify genes that were differentially expressed in response to oral administration of oleoylethanolamide (OEA) or a non-hydrolysable OEA analog (KDS 5104), which affect satiety, lipid metabolism, fat utilization, food intake, and body fat mass.
# (§5) Animals, diet, and experimental design. Adult male C57bl6j mice purchased at 8 weeks of age were individually housed and maintained ad libitum on high fat diet and water for 2 weeks. Seven mice were randomly allocated in 3 groups and fed with a high fat diet (lipids represented 50% of daily energy) for 2 weeks. […]
# (§6) RNA extraction and gene expression. […] The RNA concentration was determined on nanodrop from the absorbance at 260 nm. […] Real-time quantitative PCR (RT-qPCR) were performed on cDNA obtained as described above using a high through put system (Biomek 3000, Beckman & Coulter, Fullerton, USA) and a Lightcycler 480 (Roche/Hitachi, Basel, Switzerland) with SYBR Green Master mix+kit (Eurogentec, Philadelphia, USA). […] Values were expressed as ratio of RNA levels relative to control mice (diets with 0 mg of OEA/kg/body weight) using ΔΔ(Ct) (Livak K J & Schmittgen T D, 2001, Methods 25:402-8). Gene expression of the following genes was measured (abbreviation and GenBank Accession shown in parentheses). […]
# Adiponectin = assay: Real-time PCR gene expression in peripheral tissues: adiponectin; assay type: in vivo; conditions: C57bl6j mice, high fat diet, 100 mg/kg/body weight in diet, 5 weeks
# Experimental: as §4
# (§7) Animals, diet, and experimental design. Adult male C57bl6j mice purchased at 8 weeks of age were individually housed and maintained ad libitum on high fat diet and water for 2 weeks. Seven mice were randomly allocated in 3 groups and fed with a high fat diet (lipids represented 50% of daily energy) for 2 weeks. For one kilogram, the composition of the high fat diet was: 235 g casein, 201 g saccharose, 3.5 g L-cystine, 85 g starch, 116 g maltodextrin, 60 g cellulose, 12 g vitamins mix (AIN-93M, UPAE, Jouy-en-Josas, France), 51.5 g mineral mix (AIN-93Vx, UPAE, Jouy-en-Josas, France), and 236 g lard. Then, either OEA or KDS 5104 was added to the diet at a concentration of 100 mg/kg/body weight. The mice were kept under treatment for 5 weeks.
# (§8) Sampling. At the end of the experimental period, mice were sacrificed by blood drawing (cardiac puncture) after anesthesia with isoflurane. Plasma was obtained by centrifugation (1,000 g for 10 min at 4° C.). Mesenteric, epididymal, inguinal and peritoneal adipose depots, as well as liver, stomach, small intestine mucosa, pancreas, and gastrocnemian muscle were removed and frozen into liquid nitrogen. Plasma, urine, feces, and organ samples were kept at −80° C. until analysis.
# RNA extraction and gene expression. Total RNA from liver, intestine mucous membrane, adipose tissues, gastrocnemian muscle, pancreas and stomach were extracted with TRIzol reagent (Invitrogen, Carlsbad, USA) according to the manufacturer's instruction. The RNA concentration was determined on nanodrop from the absorbance at 260 nm. […] Real-time quantitative PCR (RT-qPCR) were performed on cDNA obtained as described above using a high through put system (Biomek 3000, Beckman & Coulter, Fullerton, USA) and a Lightcycler 480 (Roche/Hitachi, Basel, Switzerland) with SYBR Green Master mix+kit (Eurogentec, Philadelphia, USA). […] Values were expressed as ratio of RNA levels relative to control mice (diets with 0 mg of OEA/kg/body weight) using ΔΔ(Ct) (Livak K J & Schmittgen T D, 2001, Methods 25:402-8). Gene expression of the following genes was measured (abbreviation and GenBank Accession shown in parentheses).
# Statistical analysis. […] Daily food intake was analyzed using two-way ANOVA on Statview software. […] For statistical analysis of the gene expression data, values were calculated relative to 18S expression for each mouse and gene.
# [4] = tested on: G protein coupled receptor 119 (GPR 119); assay: Real-time PCR gene expression in peripheral tissues: GPR119; assay type: in vivo; conditions: proximal intestine; C57bl6j mice, high fat diet, 100 mg/kg/body weight in diet, 5 weeks
# Experimental: as §4, §5, §6
# Leptin = assay: Real-time PCR gene expression in peripheral tissues: leptin; assay type: in vivo; conditions: C57bl6j mice, high fat diet, 100 mg/kg/body weight in diet, 5 weeks
# Experimental: as §4, §7, §8
# RNA extraction and gene expression. Total RNA from liver, intestine mucous membrane, adipose tissues, gastrocnemian muscle, pancreas and stomach were extracted with TRIzol reagent (Invitrogen, Carlsbad, USA) according to the manufacturer's instruction. The RNA concentration was determined on nanodrop from the absorbance at 260 nm. Retro-transcription PCRs to synthesize cDNA were performed using an Applied Biosystem Thermal Cycler 2720 and Superscript II (Invitrogen, Carlsbad, USA) according to manufacturer's protocol. Real-time quantitative PCR (RT-qPCR) were performed on cDNA obtained as described above using a high through put system (Biomek 3000, Beckman & Coulter, Fullerton, USA) and a Lightcycler 480 (Roche/Hitachi, Basel, Switzerland) with SYBR Green Master mix+kit (Eurogentec, Philadelphia, USA). Primers for the selected genes were generated using online informatics assistance from the Lightcycler manufacturer (Roche). Databases used to identify the genes were (1) the NCBI database (GenBank) and (2) the IHOP (Information Hyperlinked over Protein) database (www.ihop-net.org/UniPub/iHOP/bng/). Values were expressed as ratio of RNA levels relative to control mice (diets with 0 mg of OEA/kg/body weight) using ΔΔ(Ct) (Livak K J & Schmittgen T D, 2001, Methods 25:402-8). Gene expression of the following genes was measured (abbreviation and GenBank Accession shown in parentheses).
# Statistical analysis. […] Statistical analysis of physiological parameters and gene expression data was performed by one-way ANOVA on Statview software (SAS Institute, Cary, USA). Daily food intake was analyzed using two-way ANOVA on Statview software. Statistical significance was set up at the P<0.05 level, the P<0.01 level and the P<0.001 level. For statistical analysis of the gene expression data, values were calculated relative to 18S expression for each mouse and gene.
# [5] = tested on: Oleoylethanolamide synthase (OEA synthase); assay: Real-time PCR gene expression in peripheral tissues: OEA synthase; assay type: in vivo; conditions: proximal intestine; C57bl6j mice, high fat diet, 100 mg/kg/body weight in diet, 5 weeks
# Experimental: as §4, §5, §6
# [6] = cited from earlier work
# [7] = rodents, intraperitoneal administration
smiles,measurement,setting,value
"CCCCCCCC/C=C\CCCCCCCC(=O)NCCO [OEA, N-oleoyl-ethanolamide]",Dose dependence of the effect on food intake,[1]; 10 vs 100 mg/kg body weight,not dose dependent
same,"Food intake, change in mice consuming OEA","[1]; high fat diet, OEA 10 or 100 mg/kg body weight in diet, P<0.05",−6.5%
same,"Plasma triglycerides, change",[2]; 10 mg dose,−72%
same,plasma total cholesterol,[2]; 10 mg/kg,trend to decreased
same,"Plasma triglycerides, change",[2]; 100 mg dose,−59%
same,plasma total cholesterol (decrease),[2]; 100 mg/kg body weight,reached statistical significance
same,"SREBP2 l, ratio of RNA levels relative to control mice",[3],1.22
same,"adiponectin at ep, ratio of RNA levels relative to control mice",Adiponectin; epidydimal adipose tissue,−1.14
same,"adiponectin at per, ratio of RNA levels relative to control mice",Adiponectin; peritoneal adipose tissue,−2.08
same,"GPR119 i, ratio of RNA levels relative to control mice",[4],1.97
same,"leptin at ep, ratio of RNA levels relative to control mice",Leptin; epidydimal adipose tissue,1.22
same,"leptin at per, ratio of RNA levels relative to control mice",Leptin; peritoneal adipose tissue,3.44
same,"leptin s, ratio of RNA levels relative to control mice",Leptin; stomach,1.41
same,"OEA synthase i, ratio of RNA levels relative to control mice",[5],−1.38
same,"food intake (meal size, first meal delay, meal intervals)",[6]; administrated intraperitoneally,reduced food intake
same,body fat gain,[6]; [7],reduced body fat gain
same,satiety and lipid utilization,[6]; [7],induce satiety and peripheral utilization of lipid substrate
